The text below walks through data of patent US4463171A, “Derivatives of macrolide antibiotics” (Sanraku-Ocean Co., Ltd., priority 1982, dated 1984).

The conditions of data set [1]: cited from earlier work.
For data set [2] the following is noted: cited from earlier work. This is another data set of the same source.
Data set [3] concerns Bacillus subtilis NRRL B558. The experiment in a line: Antibacterial activity (minimum inhibitory concentration), tube dilution method. The conditions noted are these: Bacillus subtilis, NRRLB558; tube dilution method, brain heart infusion broth (pH 7.5); read-out: minimum inhibitory concentration, Bacillus subtilis NRRL B558. Type of data set: cell-based. The procedure:
(§1) The antibacterial activities of some typical compounds of this invention were measured by a tube dilution method in a brain heart infusion broth (pH 7.5) as a culture medium.

Data set [4] relates to Klebsiella pneumoniae PCI602. The description is as above. The class given is cell-based. The settings on record: PCI602, tube dilution method, brain heart infusion broth (pH 7.5), read-out: minimum inhibitory concentration, Klebsiella pneumoniae PCI602. The method, then: as §1
In data set [5] the test system is Staphylococcus aureus 209P. The description is as above. The class given is cell-based. The settings on record: tube dilution method, brain heart infusion broth (pH 7.5), read-out: minimum inhibitory concentration, Staphylococcus aureus 209P. The procedure: as §1
The subject of data set [6] is Staphylococcus aureus MS9861. The data set is described as above. Type of data set: cell-based. The conditions noted are these: Staphylococcus aureus, MS9861; tube dilution method, brain heart infusion broth (pH 7.5); read-out: minimum inhibitory concentration, Staphylococcus aureus MS9861. The method, then:
as §1

In brackets after ≈: the same amount, converted by molar mass.

As for `CC[C@H]1OC(=O)C[C@@H](O)[C@H](C)[C@@H](O[C@@H]2O[C@H](C)[C@@H](O[C@H]3C[C@@](C)(O)[C@@H](O)[C@H](C)O3)[C@H](N(C)C)[C@H]2O)[C@@H](CC=O)C[C@@H](C)C(=O)/C=C/C(C)=C/[C@@H]1CO[C@@H]1O[C@H](C)[C@@H](O)[C@@H](OC)[C@H]1OC` [tylosin], in data set [1], the “antibacterial activity in vitro” value is on record as “high antibacterial activity in vitro”. The “absorbability and excretability in vivo” value in data set [2] is given as “low”.

For the compound `CCC1OC(=O)CC(O)C(C)C(OC2OC(C)C(OC3CC(C)(O)C(O)C(C)O3)C(N(C)C)C2O)C(CC=O)CC(C)C(=O)C=CC(C)=CC1CBr` (centres unmarked) [R1=H, R3=H, AR4=Br, 23-Deoxy-23-bromo-YO-9010], the MIC is under 0.2 µg/mL in data set [3], 6.3 µg/mL (≈ 7.83 µM) in data set [4], under 0.2 µg/mL in data set [5] and 0.8 µg/mL (≈ 0.994 µM) in data set [6].

`CCC1OC(=O)CC(O)C(C)C(OC2OC(C)C(OC3CC(C)(O)C(O)C(C)O3)C(N(C)C)C2O)C(CC=O)CC(C)C(=O)C=CC(C)=CC1CSc1nnnn1C` (centres unmarked) [R1=H, R3=H, AR4=drawing 81]: the MIC in data set [3] is under 0.2 µg/mL; in data set [4], 12.5 µg/mL (≈ 14.9 µM); in data set [5], 0.8 µg/mL (≈ 0.952 µM); in data set [6] it was 3.1 µg/mL (≈ 3.69 µM).

For the compound `CCC1OC(=O)CC(O)C(C)C(OC2OC(C)C(OC3CC(C)(O)C(O)C(C)O3)C(N(C)C)C2O)C(CC=O)CC(C)C(=O)C=CC(C)=CC1COC(=O)C(NSc1ccccc1[N+](=O)[O-])c1ccccc1` (centres unmarked) [R1=H, R3=H, AR4=drawing 74], the MIC in data set [3] stood at 0.8 µg/mL (≈ 0.778 µM); in data set [4] it was 3.1 µg/mL (≈ 3.01 µM); in data set [5], 0.8 µg/mL (≈ 0.778 µM); in data set [6] it was 3.1 µg/mL (≈ 3.01 µM).
